# Laboratory results as given in patent US8802715B2, “Crystal forms of saxagliptin and processes for preparing same” (AstraZeneca AB, priority 2007, dated 2014).
# How the values were obtained:
# [1] = Weight gain with relative humidity (hygroscopicity); format: physicochemical
# [2] = Solid form stability of crystals stored at ambient conditions; format: physicochemical; conditions: product likely form H2-1
# Experimental: 100 mg Saxagliptin mono HCl salt form H2-1 (dihydrate) (prepared employing a procedure similar to that described in Example 5) were added to 2 ml of dry ethanol (dried over molecular sieves). The resulting mixture was heated at 45° C. until all form H^2-1 compound was dissolved, at which time heating was discontinued. Crystallization was initiated when the temperature was cooled to 25° C.±2° C. (close to room temperature). Crystals of saxagliptin HCl salt Pattern P-5 were recovered, which crystals were maintained as a slurry in a sealed container at 25° C.±2° C.
SMILES,hygroscopicity ([1]; from weight gain in the range 25-75% RH at 25° C.),weight gain ([1]; range 25-75% RH at 25° C.),conversion of crystal form on storage [2]
N#C[C@@H]1C[C@@H]2C[C@@H]2N1C(=O)[C@@H](N)C12CC3CC(CC(O)(C3)C1)C2.O [free base monohydrate (form H−1)],non-hygroscopic,0.1%,
Cl.N#C[C@@H]1C[C@@H]2C[C@@H]2N1C(=O)[C@@H](N)C12CC3CC(CC(O)(C3)C1)C2 [saxagliptin HCl salt Pattern P-5],,,underwent significant conversion
